Test results reported in patent US8563542B2 (Cyclacel Limited, priority 2007, dated 2013).

Molecular target: PLK1 (Homo sapiens, UniProt P53350)
Experiment: PLK1 protein kinase assay (CDC25C phosphorylation, [γ-32P]-ATP)
Assay type: biochemical
Details: Table 2, PLK1 IC50; class symbols; read-out: PLK1 IC50

Chain of PLK1 (P53350 whole entry): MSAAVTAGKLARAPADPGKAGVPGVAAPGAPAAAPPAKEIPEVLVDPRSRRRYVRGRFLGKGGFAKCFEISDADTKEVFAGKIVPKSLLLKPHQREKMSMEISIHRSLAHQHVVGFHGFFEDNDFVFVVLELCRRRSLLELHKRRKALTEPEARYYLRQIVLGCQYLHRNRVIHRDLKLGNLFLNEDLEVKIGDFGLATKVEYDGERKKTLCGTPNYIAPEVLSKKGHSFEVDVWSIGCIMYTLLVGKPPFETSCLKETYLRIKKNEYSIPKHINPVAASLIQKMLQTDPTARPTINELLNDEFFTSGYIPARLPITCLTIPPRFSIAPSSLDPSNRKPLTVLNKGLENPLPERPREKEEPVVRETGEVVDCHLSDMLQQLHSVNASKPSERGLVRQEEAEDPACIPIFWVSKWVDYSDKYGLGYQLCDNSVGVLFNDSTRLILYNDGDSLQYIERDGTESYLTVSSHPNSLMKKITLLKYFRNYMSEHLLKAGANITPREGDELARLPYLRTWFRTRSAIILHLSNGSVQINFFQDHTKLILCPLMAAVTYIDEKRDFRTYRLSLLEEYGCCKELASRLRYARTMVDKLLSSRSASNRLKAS

| Compound | IC50 [nM] |
| --- | --- |
| COc1cc(C(=O)NCCO)ccc1Nc1ncc2c(n1)N(C1CCCC1)CC1(CC1)C(=O)N2C [compound 188, 4-(9-Cyclopentyl-5-methyl-6-oxo-6,7,8,9-tetrahydro-5H-spiro[pyrimido[4,5-b][1,4]diazepin-3,1′-cyclopropane]-2-ylamino)-N-(2-hydroxy-ethyl)-3-methoxy-benzamide] | < 100 |
| COc1cc(C(=O)NCCOCCO)ccc1Nc1ncc2c(n1)N(C1CCCC1)CC1(CC1)C(=O)N2C [compound 189, 4-(9-Cyclopentyl-5-methyl-6-oxo-6,7,8,9-tetrahydro-5H-spiro[pyrimido[4,5-b][1,4]diazepin-3,1′-cyclopropane]-2-ylamino)-N-[2-(2-hydroxy-ethoxy)-ethyl]-3-methoxy-benzamide] | < 100 |
| CONC(=O)c1ccc(Nc2ncc3c(n2)N(C2CCCC2)CC2(CC2)C(=O)N3C)c(OC)c1 [compound 190, 4-(9-Cyclopentyl-5-methyl-6-oxo-6,7,8,9-tetrahydro-5H-spiro[pyrimido[4,5-b][1,4]diazepin-3,1′-cyclopropane]-2-ylamino)-3,N-dimethoxy-benzamide] | < 100 |
| CN1C(=O)CCN(C2CCCC2)c2nc(NC(=O)c3ccccc3)ncc21 [compound 193, N-(9-Cyclopentyl-5-methyl-6-oxo-6,7,8,9-tetrahydro-5H-pyrimido[4,5-b][1,4]diazepin-2-yl)-benzamide] | < 10000 |
| COc1cc(C(=O)NCC2CCN(C)CC2)ccc1Nc1ncc2c(n1)N(C1CCCC1)CC(C)(C)C(=O)N2C [compound 196] | < 100 |
| COc1cc(C(=O)NC2CCN(Cc3ccccc3)CC2)ccc1Nc1ncc2c(n1)N(C1CCCC1)CC(C)(C)C(=O)N2C [compound 197, N-(1-Benzyl-piperidin-4-yl)-4-(9-cyclopentyl-5,7,7-trimethyl-6-oxo-6,7,8,9-tetrahydro-5H-pyrimido[4,5-b][1,4]diazepin-2-ylamino)-3-methoxy-benzamide] | < 100 |
| COCCNC(=O)c1ccc(Nc2ncc3c(n2)N(C2CCCC2)CC(C)(C)C(=O)N3C)c(OC)c1 [compound 198, 4-(9-Cyclopentyl-5,7,7-trimethyl-6-oxo-6,7,8,9-tetrahydro-5H-pyrimido[4,5-b][1,4]diazepin-2-ylamino)-3-methoxy-N-(2-methoxy-ethyl)-benzamide] | < 1000 |
| COc1cc(C(=O)NCc2ccncc2)ccc1Nc1ncc2c(n1)N(C1CCCC1)CC(C)(C)C(=O)N2C [compound 199, 4-(9-Cyclopentyl-5,7,7-trimethyl-6-oxo-6,7,8,9-tetrahydro-5H-pyrimido[4,5-b][1,4]diazepin-2-ylamino)-3-methoxy-N-pyridin-4-yl-ylmethyl-benzamide] | < 100 |
| COc1cc(C(=O)NCCc2c[nH]cn2)ccc1Nc1ncc2c(n1)N(C1CCCC1)CC(C)(C)C(=O)N2C [compound 200, 4-(9-Cyclopentyl-5,7,7-trimethyl-6-oxo-6,7,8,9-tetrahydro-5H-pyrimido[4,5-b][1,4]diazepin-2-ylamino)-N-[2-(1H-imidazol-4-yl)-ethyl]-3-methoxy-benzamide] | < 100 |
| COc1cc(C(=O)NCc2ccco2)ccc1Nc1ncc2c(n1)N(C1CCCC1)CC(C)(C)C(=O)N2C [compound 201, 4-(9-Cyclopentyl-5,7,7-trimethyl-6-oxo-6,7,8,9-tetrahydro-5H-pyrimido[4,5-b][1,4]diazepin-2-ylamino)-N-furan-2-ylmethyl-3-methoxy-benzamide] | < 100 |
| COc1cc(C(=O)NCC2CCCCN2C)ccc1Nc1ncc2c(n1)N(C1CCCC1)CCC(=O)N2C (stereo not shown) [compound 202, 4-(9-Cyclopentyl-5-methyl-6-oxo-6,7,8,9-tetrahydro-5H-pyrimido[4,5-b][1,4]diazepin-2-ylamino)-3-methoxy-N-(1-methyl-piperidin-2-ylmethyl)-benzamide] | < 100 |
| COc1cc(C(=O)NCCN2CCOCC2)ccc1Nc1ncc2c(n1)N(C1CCCC1)CCC(=O)N2C [compound 203, 4-(9-Cyclopentyl-5-methyl-6-oxo-6,7,8,9-tetrahydro-5H-pyrimido[4,5-b][1,4]diazepin-2-ylamino)-3-methoxy-N-(2-morpholin-4-yl-ethyl)-benzamide] | < 1000 |
| COc1cc(C(=O)NC2CCCC2)ccc1Nc1ncc2c(n1)N(C1CCCC1)CCC(=O)N2C [compound 204, N-Cyclopentyl-4-(9-cyclopentyl-5-methyl-6-oxo-6,7,8,9-tetrahydro-5H-pyrimido[4,5-b][1,4]diazepin-2-ylamino)-3-methoxy-benzamide] | < 100 |
| COc1cc(C(=O)NCc2cccn2C)ccc1Nc1ncc2c(n1)N(C1CCCC1)CCC(=O)N2C [compound 205, 4-(9-Cyclopentyl-5-methyl-6-oxo-6,7,8,9-tetrahydro-5H-pyrimido[4,5-b][1,4]diazepin-2-ylamino)-3-methoxy-N-(1-methyl-1H-pyrrol-2-ylmethyl)-benzamide] | < 100 |
| COc1cc(C(=O)NC2CCNCC2)ccc1Nc1ncc2c(n1)N(C1CCCC1)CCC(=O)N2C [compound 206, 4-(9-Cyclopentyl-5-methyl-6-oxo-6,7,8,9-tetrahydro-5H-pyrimido[4,5-b][1,4]diazepin-2-ylamino)-3-methoxy-N-piperidin-4-yl-benzamide] | < 100 |

The remaining lines, values ahead:

| IC50 [nM] | Compound |
| --- | --- |
| < 10000 | COc1cc(C(=O)NC2CCN(C)CC2)ccc1Nc1ncc2c(n1)N(C1CC1)CCC(=O)N2C [compound 207, 4-(9-Cyclopropyl-5-methyl-6-oxo-6,7,8,9-tetrahydro-5H-pyrimido[4,5-b][1,4]diazepin-2-ylamino)-3-methoxy-N-(1-methyl-piperidin-4-yl)-benzamide] |
| < 1000 | COc1cc(C(=O)NC2CCN(C)CC2)ccc1Nc1ncc2c(n1)N(CCO)CCC(=O)N2C [compound 208, 4-[9-(2-Hydroxy-ethyl)-5-methyl-6-oxo-6,7,8,9-tetrahydro-5H-pyrimido[4,5-b][1,4]diazepin-2-ylamino]-3-methoxy-N-(1-methyl-piperidin-4-yl)-benzamide] |
| < 1000 | COc1cc(C(=O)NC2CCN(S(C)(=O)=O)CC2)ccc1Nc1ncc2c(n1)N(C1CCCC1)CCC(=O)N2C [compound 209, 4-(9-Cyclopentyl-5-methyl-6-oxo-6,7,8,9-tetrahydro-5H-pyrimido[4,5-b][1,4]diazepin-2-ylamino)-N-(1-methanesulfonyl-piperidin-4-yl)-3-methoxy-benzamide] |
| < 1000 | COc1cc(C(=O)NC2CCN(C(C)=O)CC2)ccc1Nc1ncc2c(n1)N(C1CCCC1)CCC(=O)N2C [compound 210, N-(1-Acetyl-piperidin-4-yl)-4-(9-cyclopentyl-5-methyl-6-oxo-6,7,8,9-tetrahydro-5H-pyrimido[4,5-b][1,4]diazepin-2-ylamino)-3-methoxy-benzamide] |
| < 1000 | CCOC(=O)CN1CCC(NC(=O)c2ccc(Nc3ncc4c(n3)N(C3CCCC3)CCC(=O)N4C)c(OC)c2)CC1 [compound 211, {4-[4-(9-Cyclopentyl-5-methyl-6-oxo-6,7,8,9-tetrahydro-5H-pyrimido[4,5-b][1,4]diazepin-2-ylamino)-3-methoxy-benzoylamino]-piperidin-1-yl}-acetic acid ethyl ester] |
| < 1000 | COc1cc(C(=O)NC2CCN(C(=O)c3ccccc3)CC2)ccc1Nc1ncc2c(n1)N(C1CCCC1)CCC(=O)N2C [compound 212, N-(1-Benzoyl-piperidin-4-yl)-4-(9-cyclopentyl-5-methyl-6-oxo-6,7,8,9-tetrahydro-5H-pyrimido[4,5-b][1,4]diazepin-2-ylamino)-3-methoxy-benzamide] |
| < 100 | CN1CCC(NC(=O)c2ccc(Nc3ncc4c(n3)N(C3CCCC3)CCC(=O)N4C)c(Cl)c2)CC1 [compound 214, 3-Chloro-4-(9-cyclopentyl-5-methyl-6-oxo-6,7,8,9-tetrahydro-5H-pyrimido[4,5-b][1,4]diazepin-2-ylamino)-N-(1-methyl-piperidin-4-yl)-benzamide] |
| < 1000 | CN1CCC(NC(=O)c2ccc(Nc3ncc4c(n3)N(C3CCCC3)CCC(=O)N4C)c(OC(F)(F)F)c2)CC1 [compound 216, 4-(9-Cyclopentyl-5-methyl-6-oxo-6,7,8,9-tefrahydro-5H-pyrimido[4,5-b][1,4]diazepin-2-ylamino)-N-(1-methyl-piperidin-4-yl)-3-trifluoromethoxy-benzamide] |
| < 1000 | COc1cc(C(=O)NC2CCN(Cc3ccccc3)CC2)ccc1Nc1ncc2c(n1)N(C1CCCC1)CC1(CCC1)C(=O)N2C [compound 217, 4-(9-Cyclopentyl-5-methyl-6-oxo-6,7,8,9-tetrahydro-5H-spiro[pyrimido[4,5-b][1,4]diazepin-3,1′-cyclobutane]-2-ylamino)-3-methoxy-N-(1-benzylpiperidin-4-yl)-benzamide] |
| < 100 | CCN(CC)CCNC(=O)c1ccc(Nc2ncc3c(n2)N(C2CCCC2)CC2(CCC2)C(=O)N3C)c(OC)c1 [compound 219, 4-(9-Cyclopentyl-5-methyl-6-oxo-6,7,8,9-tetrahydro-5H-spiro[pyrimido[4,5-b][1,4]diazepin-3,1′-cyclobutane]-2-ylamino)-N-(2-diethylamino-ethyl)-3-methoxy-benzamide] |
| < 1000 | COc1cc(C(=O)NCc2ccco2)ccc1Nc1ncc2c(n1)N(C1CCCC1)CC1(CCC1)C(=O)N2C [compound 222, 4-(9-Cyclopentyl-5-methyl-6-oxo-6,7,8,9-tetrahydro-5H-spiro[pyrimido[4,5-b][1,4]diazepin-3,1′-cyclobutane]-2-ylamino)-N-furan-2-ylmethyl-3-methoxy-benzamide] |
| < 10000 | COc1cc(C(=O)NC2CCN(C)CC2)ccc1Nc1ncc2c(n1)N(CCC(=O)NCCO)CCC(=O)N2C [compound 223, 4-{9-[2-(2-Hydroxy-ethylcarbamoyl)-ethyl]-5-methyl-6-oxo-6,7,8,9-tetrahydro-5H-pyrimido[4,5-b][1,4]diazepin-2-ylamino}-3-methoxy-N-(1-methyl-piperidin-4-yl)-benzamide] |
| < 1000 | CNC(=O)CCN1CCC(=O)N(C)c2cnc(Nc3ccc(C(=O)NC4CCN(C)CC4)cc3OC)nc21 [compound 224, 3-Methoxy-4-[5-methyl-9-(2-methylcarbamoyl-ethyl)-6-oxo-6,7,8,9-tetrahydro-5H-pyrimido[4,5-b][1,4]diazepin-2-ylamino]-N-(1-methyl-piperidin-4-yl)-benzamide] |
